Earlier results in patent publication US10993944B2, “Methods and compositions for the treatment of hair loss” (Aneira Pharma, Inc., priority 2019, dated 2021).
Where two headings read alike, the source gives them in different places. Each block holds one compound with its values, some of them ahead of it.

Experiments:
[1] = system: elevated intraocular pressure; conditions: glaucomatous monkey eyes; Gagliuso 2004
[2] = system: elevated intraocular pressure; conditions: human glaucoma patients non-responsive to latanoprost; Gandolfi 2003
[3] = target: human recombinant FP receptor (Homo sapiens, UniProt P43088)
human recombinant FP receptor, sequence (P43088 whole entry): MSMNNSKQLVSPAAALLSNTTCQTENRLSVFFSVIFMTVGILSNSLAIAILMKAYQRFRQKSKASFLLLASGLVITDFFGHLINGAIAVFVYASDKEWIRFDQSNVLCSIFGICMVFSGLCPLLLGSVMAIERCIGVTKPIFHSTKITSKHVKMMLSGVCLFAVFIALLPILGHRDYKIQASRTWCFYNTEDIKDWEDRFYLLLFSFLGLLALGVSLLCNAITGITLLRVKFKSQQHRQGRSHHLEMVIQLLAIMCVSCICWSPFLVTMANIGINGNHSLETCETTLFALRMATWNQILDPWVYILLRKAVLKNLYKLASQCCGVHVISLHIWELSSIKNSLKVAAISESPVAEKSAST

[4] = not given; remark: listed apart in the source
hair growth [5] = conditions: McCarey 2004
[6] = system: dihydrotestosterone (DHT); conditions: oral; including prostate gland and scalp
hair growth [7] = system: hair growth

Structure (SMILES): CCNC(=O)CCC/C=C\C[C@@H]1[C@@H](/C=C/[C@@H](O)CCc2ccccc2)[C@H](O)C[C@@H]1O [Bimatoprost]
- effect on elevated intraocular pressure in combination with latanoprost [1]: additive to that of latanoprost
- response in reducing elevated intraocular pressure [2]: found responsive to bimatoprost

- potency compared to PGF2α ([3]; human FP receptors): twice the potency of PGF2α
Structure (SMILES): O=C(O)CCC/C=C\C[C@@H]1[C@@H](CC[C@@H](O)CCc2ccccc2)[C@H](O)C[C@@H]1O [Latanoprost free acid, Latanoprost acid]
- potency as an FP receptor ligand compared to latanoprost ([3]; human recombinant FP receptor): two-hundred times more potent than latanoprost

- fat solubility compared to bimatoprost: more fat soluble than bimatoprost
- solubility in water (words): poorly dissolved in water
- solubility in water (words) (listed as latanoprost): poor solubility in water
- stability in acidic or basic aqueous solutions ([4]; acidic or basic aqueous solutions): no more than 48 hours
- stability in neutral aqueous solutions ([4]; neutral aqueous solutions, room temperature): up to one month
Structure (SMILES): CC(C)OC(=O)CCC/C=C\C[C@@H]1[C@@H](CC[C@@H](O)CCc2ccccc2)[C@H](O)C[C@@H]1O [Latanoprost, isopropyl ester of 17-phenyl-13,14-dihydro prostaglandin F2a]
- solubility in propylene glycol, methanol, ethanol and 2-propanol (highest concentration (5%)): Sufficient amount of solubility can be obtained even at the highest concentration (5%)

Structure (SMILES): CCCCCCCC(=O)CC[C@@H]1[C@@H](C/C=C\CCCC(=O)OC(C)C)[C@@H](O)C[C@H]1O [Uenoprostone isopropyl ester, Unoprostone isopropyl ester]
- hair growth (hair growth [5]): cause no hair growth and in fact may inhibit hair growth

Structure (SMILES): CC(C)(C)NC(=O)[C@H]1CC[C@H]2[C@@H]3CC[C@H]4NC(=O)C=C[C@]4(C)[C@H]3CC[C@]12C [finasteride, (1S,3aS,3bS,5aR,9aR,9bS,11aS)—N-tert-butyl-9a,11a-dimethyl-7-oxo-1,2,3,3a,3b,4,5,5a,6,9b,10,11-dodecahydroindeno[5,4-f]quinoline-1-carboxamide]
- decrease of production of dihydrotestosterone (DHT) [6]: about 70%

Structure (SMILES): Nc1cc(N2CCCCC2)nc(N)[n+]1OS(=O)(=O)[O-] [minoxidil sulphate]
- potency as hair growth agent compared to minoxidil (hair growth [7]): much more potent hair growth agent

Structure (SMILES): CCCCCCCC(=O)CC[C@@H]1[C@@H](C/C=C\CCCC(=O)O)[C@@H](O)C[C@H]1O [uenoprostone free acid]
- hair growth (hair growth [5]): cause no hair growth and in fact may inhibit hair growth
